According to BigSolDB 2.1:

## NC(=O)[C@@H]1CCCN1
In DMF, 278.15 K
  solubility (mole fraction): 0.0422
In DMF, 283.15 K
  solubility (mole fraction): 0.0578
In DMF, 288.15 K
  solubility (mole fraction): 0.0758
In DMF, 293.15 K
  solubility (mole fraction): 0.0976
In DMF, 298.15 K
  solubility (mole fraction): 0.123
In DMF, 303.15 K
  solubility (mole fraction): 0.156
In DMF, 308.15 K
  solubility (mole fraction): 0.194
In DMF, 313.15 K
  solubility (mole fraction): 0.238
In DMF, 318.15 K
  solubility (mole fraction): 0.288
In DMF, 323.15 K
  solubility (mole fraction): 0.347
In THF, 278.15 K
  solubility (mole fraction): 0.0621
In THF, 283.15 K
  solubility (mole fraction): 0.075
In THF, 288.15 K
  solubility (mole fraction): 0.0885
In THF, 293.15 K
  solubility (mole fraction): 0.107
In THF, 298.15 K
  solubility (mole fraction): 0.129
In THF, 303.15 K
  solubility (mole fraction): 0.156
In THF, 308.15 K
  solubility (mole fraction): 0.189
In THF, 313.15 K
  solubility (mole fraction): 0.228
In THF, 318.15 K
  solubility (mole fraction): 0.287
In THF, 323.15 K
  solubility (mole fraction): 0.362
In acetone, 278.15 K
  solubility (mole fraction): 0.0644
In acetone, 283.15 K
  solubility (mole fraction): 0.078
In acetone, 288.15 K
  solubility (mole fraction): 0.0956
In acetone, 293.15 K
  solubility (mole fraction): 0.113
In acetone, 298.15 K
  solubility (mole fraction): 0.133
In acetone, 303.15 K
  solubility (mole fraction): 0.154
In acetone, 308.15 K
  solubility (mole fraction): 0.177
In acetone, 313.15 K
  solubility (mole fraction): 0.2
In acetone, 318.15 K
  solubility (mole fraction): 0.225
In acetone, 323.15 K
  solubility (mole fraction): 0.252
In acetonitrile, 278.15 K
  solubility (mole fraction): 0.0557
In acetonitrile, 283.15 K
  solubility (mole fraction): 0.0634
In acetonitrile, 288.15 K
  solubility (mole fraction): 0.073
In acetonitrile, 293.15 K
  solubility (mole fraction): 0.0838
In acetonitrile, 298.15 K
  solubility (mole fraction): 0.0951
In acetonitrile, 303.15 K
  solubility (mole fraction): 0.106
In acetonitrile, 308.15 K
  solubility (mole fraction): 0.116
In acetonitrile, 313.15 K
  solubility (mole fraction): 0.127
In acetonitrile, 318.15 K
  solubility (mole fraction): 0.138
In acetonitrile, 323.15 K
  solubility (mole fraction): 0.148
In cyclohexane, 278.15 K
  solubility (mole fraction): 6e-05
In cyclohexane, 283.15 K
  solubility (mole fraction): 9e-05
In cyclohexane, 288.15 K
  solubility (mole fraction): 0.00014
In cyclohexane, 293.15 K
  solubility (mole fraction): 0.00022
In cyclohexane, 298.15 K
  solubility (mole fraction): 0.00032
In cyclohexane, 303.15 K
  solubility (mole fraction): 0.00051
In cyclohexane, 308.15 K
  solubility (mole fraction): 0.00079
In cyclohexane, 313.15 K
  solubility (mole fraction): 0.00124
In cyclohexane, 318.15 K
  solubility (mole fraction): 0.0017
In cyclohexane, 323.15 K
  solubility (mole fraction): 0.00231
In ethyl acetate, 278.15 K
  solubility (mole fraction): 0.0134
In ethyl acetate, 283.15 K
  solubility (mole fraction): 0.0179
In ethyl acetate, 288.15 K
  solubility (mole fraction): 0.0242
In ethyl acetate, 293.15 K
  solubility (mole fraction): 0.0315
In ethyl acetate, 298.15 K
  solubility (mole fraction): 0.042
In ethyl acetate, 303.15 K
  solubility (mole fraction): 0.0549
In ethyl acetate, 308.15 K
  solubility (mole fraction): 0.0711
In ethyl acetate, 313.15 K
  solubility (mole fraction): 0.0927
In ethyl acetate, 318.15 K
  solubility (mole fraction): 0.121
In ethyl acetate, 323.15 K
  solubility (mole fraction): 0.154
In isopropanol, 278.15 K
  solubility (mole fraction): 0.0532
In isopropanol, 283.15 K
  solubility (mole fraction): 0.0618
In isopropanol, 288.15 K
  solubility (mole fraction): 0.0795
In isopropanol, 293.15 K
  solubility (mole fraction): 0.0995
In isopropanol, 298.15 K
  solubility (mole fraction): 0.125
In isopropanol, 303.15 K
  solubility (mole fraction): 0.153
In isopropanol, 308.15 K
  solubility (mole fraction): 0.19
In isopropanol, 313.15 K
  solubility (mole fraction): 0.23
In isopropanol, 318.15 K
  solubility (mole fraction): 0.28
In isopropanol, 323.15 K
  solubility (mole fraction): 0.355
In n-heptane, 278.15 K
  solubility (mole fraction): 0.00025
In n-heptane, 283.15 K
  solubility (mole fraction): 0.00036
In n-heptane, 288.15 K
  solubility (mole fraction): 0.00049
In n-heptane, 293.15 K
  solubility (mole fraction): 0.00068
In n-heptane, 298.15 K
  solubility (mole fraction): 0.00096
In n-heptane, 303.15 K
  solubility (mole fraction): 0.00131
In n-heptane, 308.15 K
  solubility (mole fraction): 0.0018
In n-heptane, 313.15 K
  solubility (mole fraction): 0.00239
In n-heptane, 318.15 K
  solubility (mole fraction): 0.00304
In n-heptane, 323.15 K
  solubility (mole fraction): 0.00401
In n-hexane, 278.15 K
  solubility (mole fraction): 6e-05
In n-hexane, 283.15 K
  solubility (mole fraction): 9e-05
In n-hexane, 288.15 K
  solubility (mole fraction): 0.00015
In n-hexane, 293.15 K
  solubility (mole fraction): 0.00023
In n-hexane, 298.15 K
  solubility (mole fraction): 0.00032
In n-hexane, 303.15 K
  solubility (mole fraction): 0.00051
In n-hexane, 308.15 K
  solubility (mole fraction): 0.00077
In n-hexane, 313.15 K
  solubility (mole fraction): 0.00112
In n-hexane, 318.15 K
  solubility (mole fraction): 0.00159
In n-hexane, 323.15 K
  solubility (mole fraction): 0.00212
In n-propanol, 278.15 K
  solubility (mole fraction): 0.0467
In n-propanol, 283.15 K
  solubility (mole fraction): 0.0597
In n-propanol, 288.15 K
  solubility (mole fraction): 0.0753
In n-propanol, 293.15 K
  solubility (mole fraction): 0.0933
In n-propanol, 298.15 K
  solubility (mole fraction): 0.111
In n-propanol, 303.15 K
  solubility (mole fraction): 0.13
In n-propanol, 308.15 K
  solubility (mole fraction): 0.16
In n-propanol, 313.15 K
  solubility (mole fraction): 0.204
In n-propanol, 318.15 K
  solubility (mole fraction): 0.259
In n-propanol, 323.15 K
  solubility (mole fraction): 0.328
